Measurements: patent US9216197B2, “Topical formulations of tellurium-containing compounds” (BIOMAS LTD., priority 2006, dated 2015)

Key:
[1] = AS101 solubility profile: solubility and stability (by coloration detection) in various solvents; assay type: physicochemical; settings: for Coloration / Solubility: 10% by weight AS101, ambient temperature, after 24 hours
Experimental: In a search for an improved formulation for topical application, the solubility and stability (by coloration detection) of AS101 in various hydrophilic and lipophilic solvents were determined. Since it is commonly known that topically applied formulations have better skin absorption and feel when the active pharmaceutical ingredient is solubilized or is in a molecular form, a desirable topical formulation should be characterized by high solubility and/or dispersability of the active ingredient therein.
Thus, solutions containing 10% by weight of AS101 in each solvent, were prepared by mixing AS101 in the solvent at ambient temperature.

[2] = Storage of AS101 samples in scintillation glass bottles with aluminum laminated non-sealed caps; assay type: physicochemical; settings: 30 days at ambient temperature, scintillation glass bottle with non-sealed cap
Experimental: FIGS. 1A-B present images of the content and packaging components of the containers in which the AS101 powder (FIG. 1A) and the […] AS101 […] solution in DMSO (FIG. 1B) were provided, upon 30 days of storage at ambient temperature.
The white crystalline coarse powder was placed in a scintillation glass bottle with a non-sealed cap.
A 20% (by weight) solution of AS101 in DMSO was prepared. The solution appeared as a yellow liquid with a cloudy dispersion evolving upon mixing. […] However, some unidentified particles were observed.

[3] = Microscopic evaluation of samples and polarized light crystallography; assay type: physicochemical
From the text: Microscopic Evaluation of Samples and Polarized Light Crystallography: Formulation Stability Measurements

[4] = Compatibility with aluminum tube packaging and metal equipment; assay type: physicochemical; settings: any contact with metal equipment
[5] = Heating the mixture of AS101 and propylene glycol; assay type: physicochemical
[6] = AS101 solubility profile: solubility and stability (by coloration detection) in various solvents; assay type: physicochemical; settings: hydroxycellulose
rats = settings: intravenous and intramuscular administration; cited from earlier work

**Q.** With `Cl[TeH]1(Cl)(Cl)OCCO1` [AS101, ammonium trichloro(dioxyethylene-O,O′)tellurate] as the molecule, how does the Coloration ([1]; 1% acetic acid) read?
**A.** Its Coloration is “No”.

**Q.** And the Solubility ([1]; 1% acetic acid)?
**A.** The Solubility was “No”.

**Q.** And the Coloration ([1]; Alkyl benzoate)?
**A.** The Coloration was “No”.

**Q.** And the Solubility ([1]; Alkyl benzoate)?
**A.** The Solubility was “No”.

**Q.** And the Coloration ([1]; Arlamol E)?
**A.** The Coloration was “No”.

**Q.** What about the Solubility ([1]; Arlamol E) of the same molecule?
**A.** Its Solubility is “No”.

**Q.** And the Coloration ([1]; Butyleneglycol)?
**A.** Its Coloration is “No”.

**Q.** What about the Solubility ([1]; Butyleneglycol) of the same molecule?
**A.** Its Solubility is “Yes”.

**Q.** What about the Coloration ([1]; DMI) of the same molecule?
**A.** The Coloration was “No”.

**Q.** And the Solubility ([1]; DMI)?
**A.** The Solubility was “No”.

**Q.** What about the Coloration ([1]; DMSO) of the same molecule?
**A.** Its Coloration is “No”.

**Q.** What about the Solubility ([1]; DMSO) of the same molecule?
**A.** Its Solubility is “Yes”.

**Q.** And the Coloration ([1]; Glycofurol)?
**A.** The Coloration was “No”.

**Q.** What about the Solubility ([1]; Glycofurol) of the same molecule?
**A.** The Solubility was “Yes”.

**Q.** And the Coloration ([1]; Hexylene glycol)?
**A.** The Coloration was “No”.

**Q.** And the Solubility ([1]; Hexylene glycol)?
**A.** Its Solubility is “No”.

**Q.** And the Coloration ([1]; IPM)?
**A.** Its Coloration is “No”.

**Q.** What about the Solubility ([1]; IPM) of the same molecule?
**A.** The Solubility was “No”.

**Q.** What about the Coloration ([1]; MCT oil) of the same molecule?
**A.** Its Coloration is “No”.

**Q.** What about the Solubility ([1]; MCT oil) of the same molecule?
**A.** Its Solubility is “No”.

**Q.** And the Coloration ([1]; Mineral oil)?
**A.** Its Coloration is “No”.

**Q.** What about the Solubility ([1]; Mineral oil) of the same molecule?
**A.** Its Solubility is “No”.

**Q.** And the Coloration ([1]; PEG 200)?
**A.** Its Coloration is “No”.

**Q.** What about the Solubility ([1]; PEG 200) of the same molecule?
**A.** The Solubility was “Yes”.

**Q.** What about the Coloration ([1]; PEG 400) of the same molecule?
**A.** Its Coloration is “No”.

**Q.** And the Solubility ([1]; PEG 400)?
**A.** Its Solubility is “Yes”.

**Q.** And the Coloration ([1]; Propylene Glycol)?
**A.** The Coloration was “No”.

**Q.** And the Solubility ([1]; Propylene Glycol)?
**A.** Its Solubility is “Yes”.

**Q.** And the Coloration ([1]; Silicone oil)?
**A.** The Coloration was “Black”.

**Q.** And the Solubility ([1]; Silicone oil)?
**A.** Its Solubility is “No”.

**Q.** What about the Coloration ([1]; Transcutol) of the same molecule?
**A.** Its Coloration is “No”.

**Q.** And the Solubility ([1]; Transcutol)?
**A.** The Solubility was “Yes”.

**Q.** What about the “Precipitation or re-crystallization of AS101” value ([1]; amphiphilic glycolic solvents: PEG, butyleneglycol, gycofurol, propylene glycol and TRANSCUTOL, during the tested period) of the same molecule?
**A.** The value was “no precipitation or re-crystallization”.

**Q.** What about the “State of the aluminum laminate cap after storage” value [2] of the same molecule?
**A.** Its value is “chemically and physically decomposed”.

**Q.** What about the “Crystals under polarized light” value ([3]; polarized light) of the same molecule?
**A.** The value was “distinct crystals producing birefrigerence”.

**Q.** What about the Particle diameter ([3]; powder) of the same molecule?
**A.** Its Particle diameter is 20-40 microns.

**Q.** What about the “Color upon contact with metal equipment” value [4] of the same molecule?
**A.** The value was “dark, black color”.

**Q.** And the “Change upon heating the mixture of AS101 and propylene glycol” value [5]?
**A.** The value was “no change was observed”.

**Q.** What about the “Solution coloration (compatibility)” value [6] of the same molecule?
**A.** Its value is “unacceptable solution coloration”.

**Q.** What about the “LD50 relative to the immunologically effective dose” value (rats) of the same molecule?
**A.** Its value is 500-1000 folds.
